From patent publication US9668960B2, “Methods useful in studying or modulating skin or hair pigmentation, plant extracts for use in compositions and cosmetic care method” (L V M H RECHERCHE, priority 2008, dated 2017)

System: Myo-X
Experiment: Myo-X expression by double immunolabelling in normal human melanocytes
Assay type: cell-based
Procedure: Immunofluorescence staining: For EM:KC co-culture studies fully matched melanocytes (p4) and keratinocytes (p2) were seeded onto 8-well Lab-Tek® chamber slides at a cell density of 1×10^4 cells/well and in a ratio of 1 melanocyte to 10 keratinocytes. Co-cultures were maintained overnight (16 h) in a mixture of full K-SFM and MEM (co-culture medium) to allow cell attachment, followed by medium replenishment for a further 24 h. Cells were then fixed in ice-cold methanol for 10 min at −20° C., washed in PBS and then blocked with 10% donkey serum for the detection of protein expression in filopodia.
For double labelling experiments the first primary antibody, Myo-X (1:100) (Santa Cruz, Calif., USA) was applied overnight at 4° C., followed by incubation with FITC-conjugated secondary antibody (1:100) for 1 h at room temperature. The second primary antibody, either cytokeratin (1:100) (Abeam, Cambridge, UK) or β-Actin (1:100) (Santa Cruz, USA) or Fascin (1:100) (Santa Cruz, USA) or NKi/beteb (1:30) (Monosan) was applied for 1 h at room temperature followed by a TRITC-conjugated secondary antibody (1:100) (Jackson Immunoresearch Laboratories, Inc., West Grove, USA). DAPI (Vector Laboratories, Burlingame, Calif.) was used to stain nuclei. Images were captured with a cooled Hamamatsu digital camera using a 100× objective and post-processed using Paint Shop Pro (Jasc Software Ver. 7. CA, USA). Negative controls included the omission of primary antibody and replacement with non-immune serum from secondary antibody host and inclusion of secondary antibodies.
Myo-X was also detected in EM filopodia.

Compound: CC(C)Cn1c(=O)n(C)c(=O)c2[nH]cnc21 [IBMX]
- Myo-X expression in EM (immunolabelling, words) (compared with untreated cells): increased the expression of Myo-X
- Myo-X localization in EM filopodia (compared with untreated cells): enhanced Myo-X localization in EM filopodia
- overall number of filopodia (total number of yellow spots beyond EM dendritic tips): increased
